Measurements as given in article PMC12298351, “Novel 3,19-(N-Phenyl-3-(4-fluorophenyl)-pyrazole) Acetal of Andrographolide Promotes Cell Cycle Arrest and Apoptosis in MDA-MB-231 Breast Cancer Cells” (Pharmaceuticals, 2025).

How the values were obtained:
NCI-H460 = conditions: for Total growth inhibition (TGI) / CC50: NCI-H460, Non-Small Cell Lung; for GI50: NCI-H460, Non-Small-Cell Lung; for CC50: read-out: 50% lethal concentration (LC50)
MDA-MB-435 = conditions: MDA-MB-435, Melanoma; for CC50: read-out: 50% lethal concentration (LC50)
NCI-H226 = conditions: for Total growth inhibition (TGI) / CC50: NCI-H226, Non-Small Cell Lung; for GI50: NCI-H226, Non-Small-Cell Lung; for CC50: read-out: 50% lethal concentration (LC50)
NCI-H522 = conditions: for Total growth inhibition (TGI) / CC50: NCI-H522, Non-Small Cell Lung; for GI50: NCI-H522, Non-Small-Cell Lung; for CC50: read-out: 50% lethal concentration (LC50)
HCT-116 = format: cell-based; conditions: HCT-116, Colon
HOP-62 = conditions: for Total growth inhibition (TGI) / CC50: HOP-62, Non-Small Cell Lung; for GI50: HOP-62, Non-Small-Cell Lung; for CC50: read-out: 50% lethal concentration (LC50)
ACHN = conditions: for GI50 / Total growth inhibition (TGI): Renal; for CC50: read-out: 50% lethal concentration (LC50), Renal
A498 = conditions: A498, Renal; for CC50: read-out: 50% lethal concentration (LC50)
MCF7 = conditions: MCF7, Breast; for CC50: read-out: 50% lethal concentration (LC50)
RXF 393 = conditions: RXF 393, Renal; for CC50: read-out: 50% lethal concentration (LC50)
SK-MEL-28 = conditions: SK-MEL-28, Melanoma; for CC50: read-out: 50% lethal concentration (LC50)
786-0 = conditions: 786-0, Renal; for CC50: read-out: 50% lethal concentration (LC50)
UO-31 = conditions: UO-31, Renal; for CC50: read-out: 50% lethal concentration (LC50)
A549/ATCC = conditions: for Total growth inhibition (TGI): Non-Small Cell Lung; for GI50: Non-Small-Cell Lung; for CC50: read-out: 50% lethal concentration (LC50), Non-Small Cell Lung
CCRF-CEM = conditions: for CC50: read-out: 50% lethal concentration (LC50), Leukemia
[1] = DPPH radical scavenging assay; conditions: 25 µM test compound, 0.1 mM DPPH, acetonitrile, 30 min
Summary of the method: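 Compounds at 25 µM in acetonitrile mixed 1:2 with 0.1 mM DPPH in acetonitrile, kept 30 min in the dark at room temperature. Absorbance read at 517 nm; % scavenging = (Ac − As)/Ac × 100, Ac being DPPH blank. Ascorbic acid positive control.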

HL-60(TB) = conditions: for GI50 / Total growth inhibition (TGI): Leukemia; for CC50: read-out: 50% lethal concentration (LC50), Leukemia
UACC-62 = conditions: UACC-62, Melanoma; for CC50: read-out: 50% lethal concentration (LC50)
HOP-92 = conditions: for GI50: HOP-92, Non-Small-Cell Lung
SR = conditions: for CC50: read-out: 50% lethal concentration (LC50), Leukemia
SF-539 = conditions: SF-539, CNS; for CC50: read-out: 50% lethal concentration (LC50)
MALME-3M = conditions: for GI50 / Total growth inhibition (TGI): Melanoma
OVCAR-8 = conditions: OVCAR-8, Ovarian; for CC50: read-out: 50% lethal concentration (LC50)
DU-145 = conditions: DU-145, Prostate; for CC50: read-out: 50% lethal concentration (LC50)
HS 578T = conditions: for CC50: read-out: 50% lethal concentration (LC50), Breast
SNB-75 = conditions: SNB-75, CNS; for CC50: read-out: 50% lethal concentration (LC50)

C=C1CCC2C3(C)COC(c4cn(-c5ccccc5)nc4-c4cccc(Br)c4)OC3CCC2(C)C1CC=C1C(=O)OCC1O (stereo not shown) [1e]
Total growth inhibition (TGI) (NCI-H460): 3.49 µM
GI50 (NCI-H460): 1780 nM
CC50 (NCI-H460): 6.83 µM
GI50 (MDA-MB-435): 1720 nM
Total growth inhibition (TGI) (MDA-MB-435): 3.6 µM
CC50 (MDA-MB-435): 7.51 µM
Total growth inhibition (TGI) (NCI-H226): 3.43 µM
GI50 (NCI-H226): 1750 nM
CC50 (NCI-H226): 6.71 µM
Total growth inhibition (TGI) (NCI-H522): 2.9 µM
GI50 (NCI-H522): 1500 nM
CC50 (NCI-H522): 5.62 µM
GI50 (HCT-116): 1240 nM
Total growth inhibition (TGI) (HCT-116): 2.75 µM
GI50 (NCI/ADR-RES; Ovarian): 2150 nM
Total growth inhibition (TGI) (NCI/ADR-RES; Ovarian): 5.37 µM
CC50 (NCI/ADR-RES; read-out: 50% lethal concentration (LC50), Ovarian): > 100 µM
Total growth inhibition (TGI) (HOP-62): 4.94 µM
GI50 (HOP-62): 2080 nM
CC50 (HOP-62): > 100 µM
GI50 (ACHN): 1610 nM
Total growth inhibition (TGI) (ACHN): 16.8 µM
CC50 (ACHN): 5.51 µM
GI50 (A498): 4.33 µM
Total growth inhibition (TGI) (A498): 8.1 µM
CC50 (A498): 44 µM
GI50 (MCF7): 1770 nM
Total growth inhibition (TGI) (MCF7): > 100 µM
CC50 (MCF7): > 100 µM
GI50 (RXF 393): 1180 nM
Total growth inhibition (TGI) (RXF 393): 2.93 µM
CC50 (RXF 393): 5.51 µM
GI50 (SK-MEL-28): 1730 nM
Total growth inhibition (TGI) (SK-MEL-28): 3.28 µM
CC50 (SK-MEL-28): 6.2 µM
GI50 (786-0): 2590 nM
CC50 (786-0): > 100 µM
GI50 (UO-31): 1450 nM
Total growth inhibition (TGI) (UO-31): 5.34 µM
CC50 (UO-31): 6.83 µM
Total growth inhibition (TGI) (A549/ATCC): 19.9 µM
GI50 (A549/ATCC): 3.07 µM
CC50 (A549/ATCC): > 100 µM
GI50 (CCRF-CEM; Leukemia): 700 nM
CC50 (CCRF-CEM): > 100 µM
% DPPH radical scavenging activity [1]: 58.75%
GI50 (HL-60(TB)): 1170 nM
Total growth inhibition (TGI) (HL-60(TB)): 5.17 µM
CC50 (HL-60(TB)): > 100 µM
GI50 (UACC-62): 1680 nM
Total growth inhibition (TGI) (UACC-62): 3.4 µM
CC50 (UACC-62): 6.9 µM
Total growth inhibition (TGI) (HOP-92; HOP-92, Non-Small Cell Lung): 3.41 µM
GI50 (HOP-92): 1750 nM
GI50 (SR; Leukemia): 1770 nM
CC50 (SR): > 100 µM
GI50 (SF-539): 1780 nM
Total growth inhibition (TGI) (SF-539): 3.2 µM
CC50 (SF-539): 5.74 µM
GI50 (MALME-3M): 1870 nM
Total growth inhibition (TGI) (MALME-3M): 3.45 µM
GI50 (OVCAR-8): 1760 nM
Total growth inhibition (TGI) (OVCAR-8): 4.22 µM
CC50 (OVCAR-8): > 100 µM
GI50 (DU-145): 2.12 µM
Total growth inhibition (TGI) (DU-145): 4.57 µM
CC50 (DU-145): 9.82 µM
GI50 (HS 578T; Breast): 1940 nM
Total growth inhibition (TGI) (HS 578T; Breast): 5.19 µM
CC50 (HS 578T): > 100 µM
GI50 (SNB-75): 1.57 µM
Total growth inhibition (TGI) (SNB-75): 5.32 µM
CC50 (SNB-75): 22.9 µM

C=C1CCC2C3(C)COC(c4cn(-c5ccccc5)nc4-c4cccc([N+](=O)[O-])c4)OC3CCC2(C)C1CC=C1C(=O)OCC1O (stereo not shown) [1b]
Total growth inhibition (TGI) (NCI-H460): 4.8 µM
GI50 (NCI-H460): 2270 nM
CC50 (NCI-H460): 11.3 µM
GI50 (MDA-MB-435): 3030 nM
Total growth inhibition (TGI) (MDA-MB-435): 18.3 µM
CC50 (MDA-MB-435): > 100 µM
Total growth inhibition (TGI) (NCI-H226): 6.59 µM
GI50 (NCI-H226): 2380 nM
CC50 (NCI-H226): > 100 µM
Total growth inhibition (TGI) (NCI-H522): 3.41 µM
GI50 (NCI-H522): 1750 nM
CC50 (NCI-H522): 6.65 µM
GI50 (HCT-116): 1990 nM
Total growth inhibition (TGI) (HCT-116): 4.25 µM
GI50 (NCI/ADR-RES; Ovarian): 2980 nM
Total growth inhibition (TGI) (HOP-62): 12.4 µM
GI50 (HOP-62): 3150 nM
CC50 (HOP-62): > 100 µM
GI50 (ACHN): 1890 nM
Total growth inhibition (TGI) (ACHN): 3.62 µM
CC50 (ACHN): 6.94 µM
GI50 (A498): 1.9 µM
Total growth inhibition (TGI) (A498): 45.4 µM
CC50 (A498): > 100 µM
GI50 (MCF7): 2640 nM
Total growth inhibition (TGI) (MCF7): > 100 µM
CC50 (MCF7): > 100 µM
GI50 (RXF 393): 1620 nM
Total growth inhibition (TGI) (RXF 393): 3.2 µM
CC50 (RXF 393): 6.32 µM
GI50 (SK-MEL-28): 2040 nM
Total growth inhibition (TGI) (SK-MEL-28): 4.06 µM
CC50 (SK-MEL-28): 8.11 µM
GI50 (786-0): 3040 nM
Total growth inhibition (TGI) (786-0): 10.3 µM
CC50 (786-0): > 100 µM
GI50 (UO-31): 1820 nM
Total growth inhibition (TGI) (UO-31): 5.46 µM
CC50 (UO-31): 35.7 µM
Total growth inhibition (TGI) (A549/ATCC): > 100 µM
GI50 (A549/ATCC): 3.62 µM
CC50 (A549/ATCC): > 100 µM
GI50 (CCRF-CEM; Leukemia): 1140 nM
Total growth inhibition (TGI) (CCRF-CEM; Leukemia): 5.01 µM
CC50 (CCRF-CEM): > 100 µM
% DPPH radical scavenging activity [1]: 60.68%
GI50 (HL-60(TB)): 1730 nM
Total growth inhibition (TGI) (HL-60(TB)): > 100 µM
CC50 (HL-60(TB)): > 100 µM
GI50 (UACC-62): 1690 nM
Total growth inhibition (TGI) (UACC-62): 3.46 µM
CC50 (UACC-62): 7.06 µM
Total growth inhibition (TGI) (HOP-92; HOP-92, Non-Small Cell Lung): 3.64 µM
GI50 (HOP-92): 1860 nM
CC50 (HOP-92; read-out: 50% lethal concentration (LC50), HOP-92, Non-Small Cell Lung): 7.11 µM
GI50 (SR; Leukemia): 3460 nM
Total growth inhibition (TGI) (SR; Leukemia): > 100 µM
CC50 (SR): > 100 µM
GI50 (SF-539): 1740 nM
Total growth inhibition (TGI) (SF-539): 3.18 µM
CC50 (SF-539): 5.79 µM
GI50 (MALME-3M): 1780 nM
Total growth inhibition (TGI) (MALME-3M): 3.55 µM
CC50 (MALME-3M; read-out: 50% lethal concentration (LC50), Melanoma): 7.05 µM
GI50 (OVCAR-8): 1900 nM
Total growth inhibition (TGI) (OVCAR-8): 5.04 µM
CC50 (OVCAR-8): > 100 µM
GI50 (DU-145): 4.11 µM
Total growth inhibition (TGI) (DU-145): 24.3 µM
CC50 (DU-145): > 100 µM
GI50 (HS 578T; Breast): 2690 nM
CC50 (HS 578T): > 100 µM
GI50 (SNB-75): 7.34 µM
Total growth inhibition (TGI) (SNB-75): 50 µM
CC50 (SNB-75): > 100 µM
